Test results from publication PMC8038350, “Nordihydroguaiaretic Acid as a Novel Substrate and Inhibitor of Catechol O-Methyltransferase Modulates 4-Hydroxyestradiol-Induced Cyto- and Genotoxicity in MCF-7 Cells” (Molecules, 2021).

How the values were obtained:
[1] = molecular target: T1, catechol O-methyl transferase (COMT) (Homo sapiens, UniProt P21964); assay: 4-MeOE2 formation in MCF-7 cells/lysate; […] decrease at […]; format: cell-based; settings: MCF7
T1 construct: endogenous COMT in MCF-7 whole cell lysate
T1 sequence (P21964 1-271): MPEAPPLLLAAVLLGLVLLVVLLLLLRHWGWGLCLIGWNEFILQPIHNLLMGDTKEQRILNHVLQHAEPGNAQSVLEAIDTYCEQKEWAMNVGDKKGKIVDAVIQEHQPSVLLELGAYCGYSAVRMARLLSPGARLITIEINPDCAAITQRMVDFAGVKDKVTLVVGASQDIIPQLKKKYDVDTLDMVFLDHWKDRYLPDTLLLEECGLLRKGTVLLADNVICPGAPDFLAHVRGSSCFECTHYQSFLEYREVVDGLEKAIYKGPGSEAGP

[2] = molecular target: T2, catechol O-methyl transferase (COMT) (Homo sapiens, UniProt P21964); assay: inhibition of recombinant COMT O-methylation of 4-OHE2 by HPLC-DAD (IC50 […]); also a substrate (Km […]); format: biochemical
T2 construct: recombinant human soluble COMT, hexahistidine-tagged
T2 sequence (P21964 51-271 limits assumed): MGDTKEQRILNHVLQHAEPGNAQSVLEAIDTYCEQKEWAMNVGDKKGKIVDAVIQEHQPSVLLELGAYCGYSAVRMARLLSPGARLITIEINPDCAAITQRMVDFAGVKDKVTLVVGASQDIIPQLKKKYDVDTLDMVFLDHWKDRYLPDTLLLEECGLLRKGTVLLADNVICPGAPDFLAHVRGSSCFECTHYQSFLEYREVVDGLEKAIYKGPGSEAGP

SMILES	inhibition at 10 µM [1]	Ki [2]
O=C(c1cc(O)c(O)c([N+](=O)[O-])c1)c1ccccc1F [Ro 41-0960]	88%	
C[C@H](Cc1ccc(O)c(O)c1)[C@H](C)Cc1ccc(O)c(O)c1 [compound 1, 4-[4-(3,4-dihydroxyphenyl)-2,3-dimethylbutyl] benzene-1,2-diol]		15.7 µM
